{"source": "ChEMBL document CHEMBL1146788", "about": "“Synthesis and biological evaluation of novel beta-carboline derivatives as Tat-TAR interaction inhibitors” (Bioorg Med Chem Lett, 2004)", "key": {"MT4 [1]": {"system": "MT4", "experiment": "Concentration required to protect MT-4 cells against the cytopathogenicity of HIV-1 IIIB", "assay_type": "functional, cell-based", "details": "Homo sapiens"}, "MT4 [2]": {"system": "MT4", "experiment": "Concentration required to inhibit the proliferation of uninfected MT-4 cells", "assay_type": "functional", "details": "Homo sapiens"}}, "data": [{"compound": "Cc1[nH]c(C(=O)NCCCN)cc2c3ccccc3nc1-2", "values": [{"measurement": "EC50", "setting": "MT4 [1]", "value": "> 100", "unit": "µM"}, {"measurement": "CC50", "setting": "MT4 [2]", "value": "> 100", "unit": "µM"}]}, {"compound": "N=C(N)NCCCNC(=O)c1cc2c3ccccc3nc-2c[nH]1", "values": [{"measurement": "EC50", "setting": "MT4 [1]", "value": "≥ 50", "unit": "µM"}, {"measurement": "CC50", "setting": "MT4 [2]", "value": "> 1000", "unit": "µM"}]}, {"compound": "Cc1[nH]c(C(=O)NCCCN=C(N)N)cc2c3ccccc3nc1-2", "values": [{"measurement": "EC50", "setting": "MT4 [1]", "value": "≥ 50", "unit": "µM"}, {"measurement": "CC50", "setting": "MT4 [2]", "value": "> 100", "unit": "µM"}]}, {"compound": "NCCCNC(=O)c1cc2c3ccccc3nc-2c[nH]1", "values": [{"measurement": "EC50", "setting": "MT4 [1]", "value": "> 1000", "unit": "µM"}, {"measurement": "CC50", "setting": "MT4 [2]", "value": "> 1000", "unit": "µM"}]}]}
